According to patent US5334728A (The Trustees of The University of Pennsylvania, priority 1992, dated 1994):
Several values for one entry are separate records, joined by “and”; a condition that tells them apart may be missing. Identical values can stand only once.

Tests used:
dopamine D-2 receptor [1] = target: T1, dopamine D-2 receptor (Rattus norvegicus, UniProt P61169); assay: Saturation binding of [^125 I]IBF to rat striatal homogenate in vitro
T1 construct: Striatal tissues were excised, pooled and homogenized in 100 volumes (w/v) of ice-cold Tris-HCl buffer; from tissue; host or cells: rat striatum (male Sprague-Dawley), twice-centrifuged membrane homogenate
T1 sequence (P61169 whole entry): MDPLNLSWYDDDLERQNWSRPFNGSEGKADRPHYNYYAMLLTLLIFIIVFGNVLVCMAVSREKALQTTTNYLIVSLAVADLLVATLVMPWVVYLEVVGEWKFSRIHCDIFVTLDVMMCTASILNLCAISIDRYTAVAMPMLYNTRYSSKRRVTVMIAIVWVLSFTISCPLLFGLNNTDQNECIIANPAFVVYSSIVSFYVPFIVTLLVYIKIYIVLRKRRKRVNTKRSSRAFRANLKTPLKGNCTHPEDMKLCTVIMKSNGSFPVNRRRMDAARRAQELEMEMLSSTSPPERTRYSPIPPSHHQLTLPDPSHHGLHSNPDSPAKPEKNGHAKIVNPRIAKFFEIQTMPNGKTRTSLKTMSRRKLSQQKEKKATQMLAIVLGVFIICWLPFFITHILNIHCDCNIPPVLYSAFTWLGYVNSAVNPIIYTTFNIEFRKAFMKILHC
Procedure: (§1) Male Sprague-Dawley rats (200-250 g) were decapitated, and the brains were removed and placed in ice. Striatal tissues were excised, pooled and homogenized in 100 volumes (w/v) of ice-cold Tris-HCl buffer (50 mM), pH 7.4. The homogenates were centrifuged at 20,000× g for 20 min. The resultant pellets were rehomogenized in the same buffer and centrifuged again. The final pellets were resuspended in assay buffer containing: 50 mM Tris buffer pH 7.4, 120 mM NaCl, 5 mM KCl, 2 mM CaCl2 and 1 mM MgCl2 and kept at -20° C. for the following binding assay.
(§2) The binding assays were performed by incubating 50 μl of tissue preparations containing 40-60 μg of protein with appropriate amounts of l-125 labeled ligand and competitors in a total volume of 0.2 ml of the assay buffer. After an incubation period of 15 min at 37° C. (with stirring), the samples were rapidly filtered in the cell harvester (Brandel M-24R) under vacuum through Whatman GF/B glass fiber filters pretreated with 0.2% protamine base and washed with 3×5 ml of cold (4° C.) 50 mM Tris-HCl buffer, pH 7.4. […] The filters were counted in a gamma counter (Beckman 5500) at an efficiency of 70%.

dopamine D-2 receptor [2] = target: T1, dopamine D-2 receptor; assay: Competition binding using [^125 I]IBF, rat striatal membranes
Procedure: *0.15-0.30 nM [^125 I]IBF was incubated in the presence of the
indicated compounds in 7-11 concentrations and of membrane preparation
from rat striatum. Each value represents the mean ± SEM of three to
as §1, §2

[3] = Biodistribution in rats after IV injection; assay type: in vivo, rat
Procedure: Male Sprague Dawley rats (225-300 g), which were allowed free access to food and water, were used for in vivo biodistribution study. While under halothane anesthesia, 0.2 ml of a saline solution containing [^125 l]IBF, 21, (8-10 μCi) was injected directly into the femoral vein, and the rats were sacrificed at various time points postinjection by cardiac excision under halothane anesthesia. The organs of interest were removed, weighed and the radioactivity was counted using a Beckman gamma automatic counter (Model 4000). The percent dose per organ was calculated by a comparison of the tissue counts to suitably diluted aliquots of the injected material. Total activities of blood and muscle were calculated assuming that they are 7% and 40% of total body weight, respectively.

[4] = tested on: CNS D-2 dopamine receptors; assay: Regional brain distribution in rats after iv injection; assay type: in vivo; conditions: rat; for striatum/cerebellum (ST/CB) ratio: % dose/gram ratio
Description: FIG. 2 is a bar graph showing ratios (based on % dose/gram) of regional cerebral uptake of [^125 I]IBF (CX: cortex, ST: striatum, CB: cerebellum, HP: hippocampus).
(§3) (See FIG. 2). This type of profound increase in target to nontarget ratio versus time was not observed for the other two regions (hippocampus and cortex) (FIG. 2). […] The data have been further confirmed by an in vivo imaging study of a monkey.
Regional brain distribution in rats was obtained after an iv injection of [^125 l]IBF, 21. By dissecting, weighing and counting samples from different brain regions (cortex, striatum, hippocampus and cerebellum), % dose/gram of samples was calculated by comparing the sample counts with the counts of the diluted initial dose. The uptake ratio of each region was obtained by dividing % dose/gram of each region with that ot the cerebellum.

[5] = tested on: CNS D-2 dopamine receptors; assay: Ex vivo autoradiography (preliminary); assay type: in vivo; conditions: preliminary study
Description: as §3

[6] = tested on: CNS D-2 dopamine receptors; assay: In vivo planar imaging of a monkey; conditions: planar images
Description: as §3

[7] = 2 min, IV, average of 3 rats ± SD
[8] = 15 min, IV, average of 3 rats ± SD
[9] = 30 min, IV, average of 3 rats ± SD
[10] = 60 min, IV, average of 3 rats ± SD
[11] = 120 min, IV, average of 3 rats ± SD

CCN1CCC[C@H]1CNC(=O)c1cc([125I])cc2c1OCC2 [[^125 I]IBF]
specific binding saturability (dopamine D-2 receptor [1]): saturable | Kd (dopamine D-2 receptor [1]; rat striatal homogenate in vitro, read-out: Kd, specific binding): 0.106 ± 0.015 nM | nonspecific binding (dopamine D-2 receptor [1]; saturation curve, FIG. 1): extremely low nonspecific binding | nonspecific binding at Kd (dopamine D-2 receptor [1]; saturation curve, FIG. 1): 5% | selectivity of binding to the dopamine D-2 receptor (dopamine D-2 receptor [2]): binds specifically and selectively to the dopamine D-2 receptor | Blood uptake [3, 7]: 3.50 ± 0.22 % Dose/Organ | Brain uptake [3, 7]: 0.98 ± 0.15 % Dose/Organ and 0.98 % Dose/Organ | Brain/Blood ratio [3, 7]: 2.64 ± 0.32 % dose/gram ratio | Heart uptake [3, 7]: 0.81 ± 0.25 % Dose/Organ | Kidney uptake [3, 7]: 7.58 ± 0.66 % Dose/Organ | Liver uptake [3, 7]: 16.32 ± 4.00 % Dose/Organ | Lung uptake [3, 7]: 6.14 ± 1.19 % Dose/Organ and 6.14 % Dose/Organ | Muscle uptake [3, 7]: 11.25 ± 2.62 % Dose/Organ | Skin uptake [3, 7]: 8.54 ± 1.21 % Dose/Organ | Spleen uptake [3, 7]: 0.96 ± 0.08 % Dose/Organ | Thyroid uptake [3, 7]: 0.06 ± 0.02 % Dose/Organ | Blood uptake [3, 8]: 1.80 ± 0.31 % Dose/Organ | Brain uptake [3, 8]: 0.54 ± 0.06 % Dose/Organ | Brain/Blood ratio [3, 8]: 3.01 ± 0.91 % dose/gram ratio | Heart uptake [3, 8]: 0.20 ± 0.03 % Dose/Organ | Kidney uptake [3, 8]: 2.92 ± 0.30 % Dose/Organ | Liver uptake [3, 8]: 16.16 ± 7.54 % Dose/Organ | Lung uptake [3, 8]: 1.85 ± 0.33 % Dose/Organ | Muscle uptake [3, 8]: 14.36 ± 1.29 % Dose/Organ | Skin uptake [3, 8]: 8.46 ± 0.56 % Dose/Organ | Spleen uptake [3, 8]: 0.58 ± 0.08 % Dose/Organ | Thyroid uptake [3, 8]: 0.03 ± 0.004 % Dose/Organ | Blood uptake [3, 9]: 1.26 ± 0.10 % Dose/Organ | Brain uptake [3, 9]: 0.30 ± 0.05 % Dose/Organ | Brain/Blood ratio [3, 9]: 2.26 ± 0.33 % dose/gram ratio | Heart uptake [3, 9]: 0.11 ± 0.01 % Dose/Organ | Kidney uptake [3, 9]: 1.58 ± 0.46 % Dose/Organ | Liver uptake [3, 9]: 11.59 ± 0.93 % Dose/Organ | Lung uptake [3, 9]: 0.82 ± 0.08 % Dose/Organ and 0.82 % Dose/Organ | Muscle uptake [3, 9]: 9.00 ± 1.66 % Dose/Organ | Skin uptake [3, 9]: 5.34 ± 0.17 % Dose/Organ | Spleen uptake [3, 9]: 0.31 ± 0.03 % Dose/Organ | Thyroid uptake [3, 9]: 0.02 ± 0.004 % Dose/Organ | Blood uptake [3, 10]: 0.98 ± 0.11 % Dose/Organ | Brain uptake [3, 10]: 0.17 ± 0.02 % Dose/Organ and 0.17 % Dose/Organ | Brain/Blood ratio [3, 10]: 1.90 ± 0.29 % dose/gram ratio | Heart uptake [3, 10]: 0.05 ± 0.002 % Dose/Organ | Kidney uptake [3, 10]: 1.01 ± 0.01 % Dose/Organ | Liver uptake [3, 10]: 9.84 ± 1.50 % Dose/Organ | Lung uptake [3, 10]: 0.37 ± 0.10 % Dose/Organ | Muscle uptake [3, 10]: 4.97 ± 0.56 % Dose/Organ | Skin uptake [3, 10]: 2.38 ± 0.17 % Dose/Organ | Spleen uptake [3, 10]: 0.09 ± 0.01 % Dose/Organ | Thyroid uptake [3, 10]: 0.02 ± 0.01 % Dose/Organ and 0.02 % Dose/Organ | Blood uptake [3, 11]: 0.53 ± 0.02 % Dose/Organ | Brain uptake [3, 11]: 0.07 ± 0.006 % Dose/Organ | Brain/Blood ratio [3, 11]: 1.53 ± 0.12 % dose/gram ratio | Heart uptake [3, 11]: 0.02 ± 0.001 % Dose/Organ | Kidney uptake [3, 11]: 0.68 ± 0.32 % Dose/Organ | Liver uptake [3, 11]: 3.95 ± 0.31 % Dose/Organ | Muscle uptake [3, 11]: 2.30 ± 0.22 % Dose/Organ | Skin uptake [3, 11]: 1.18 ± 0.18 % Dose/Organ | Spleen uptake [3, 11]: 0.03 ± 0.007 % Dose/Organ | Thyroid uptake [3, 11]: 0.08 ± 0.03 % Dose/Organ | in vivo deiodination ([3]; from thyroid uptake at one hour postinjection): little or no in vivo deiodination | in vivo stability compared with [^125 I]IBZM ([3]; rat, in vivo): better in vivo stability | lung clearance ([3]; rats): rapidly cleared | Liver uptake ([3]; rats, first hour to two hours postinjection): remained high throughout the first hour and gradually declined at two hours postinjection | Brain uptake ([3]; rats, intravenous): good brain uptake in rats | striatum/cerebellum (ST/CB) ratio ([4]; 2 min): 2.0 | striatum/cerebellum (ST/CB) ratio ([4]; 15 min): 3.8 | striatum/cerebellum (ST/CB) ratio ([4]; 30 min): 6.2 | striatum/cerebellum (ST/CB) ratio ([4]; 60 min): 18 | striatum/cerebellum (ST/CB) ratio ([4]; 120 min): 48 | increase in target to nontarget ratio versus time, hippocampus and cortex ([4]; hippocampus and cortex): not observed | retention in the striatum [4]: prolonged retention | striatal uptake and cerebellar activity [5]: high striatal uptake and low cerebellar activity | uptake and retention in the basal ganglia [6]: high uptake and retention in the basal ganglia
